Results published in the supplement of paper PMC10307832.

Key:
Experiment in all cases: relative viability (nuclei count vs DMSO), 5 days (fraction); higher = more cells survive
[1] = compound: COc1cc2c(Oc3ccc4[nH]c(C)cc4c3F)ncnc2cc1OCCCN1CCCC1 [Cediranib]
How it was run: (§1)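 Acceptance criteria were a control CV below 25% and at least one doubling per plate. Lung cancer cell lines in 1536-well plates got five library-drug doses (not always all listed) √10 apart by pinning and were left 5 days with no medium change. Viability divides treated-well nuclei by vehicle-well nuclei and is the median across plates. Nuclei were counted by MetaXpress from 4× Hoechst images.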

[2] = compound: Nc1ncn([C@H]2C[C@H](O)[C@@H](CO)O2)c(=O)n1 [Decitabine]
How it was run: as §1

[3] = compound: O=C(C[C@H]1NCCC[C@@H]1O)Cn1cnc2cc(Br)c(Cl)cc2c1=O (racemic) [Halofuginone]
How it was run: as §1

UMC-11
relative viability ([1]; 0.04 µM): 0.989 | relative viability ([1]; 0.1265 µM): 0.748 | relative viability ([1]; 0.4 µM): 0.88 | relative viability ([1]; 1.265 µM): 0.69 | relative viability ([1]; 4 µM): 0.92 | relative viability ([2]; 0.04 µM): 0.914 | relative viability ([2]; 0.1265 µM): 0.8 | relative viability ([2]; 0.4 µM): 0.536 | relative viability ([2]; 1.265 µM): 0.387 | relative viability ([2]; 2 µM, anchor plate): 0.638 | relative viability ([2]; 4 µM): 0.419 | relative viability ([3]; 0.001 µM): 1.12 | relative viability ([3]; 0.003162 µM): 0.984 | relative viability ([3]; 0.01 µM): 0.97 | relative viability ([3]; 0.03162 µM): 0.901 | relative viability ([3]; 0.1 µM): 0.702
